# Assay results reported in article PMC8342319, “Predicting blood-to-plasma concentration ratios of drugs from chemical structures and volumes of distribution in humans” (Molecular Diversity, 2021).
# Read-outs that look alike come from different tables or passages of the source.
# How the values were obtained:
# [1] = system: plasma protein; test: Measurement of PPB by equilibrium dialysis in pooled human plasma (free fraction); details: for fp_Human: footnote b: fu is our experimental data; for fraction unbound at 5 h, 5 µM: human
# Procedure: (§1) Pooled human plasma was obtained from heparinized blood from nine to ten healthy volunteers not medicated for at least seven days. The human blood collection and PPB experimental protocols were approved by the Ethical Review Committee of Japan Tobacco Inc, Central Pharmaceutical Research Institute. Informed consent was obtained from all subjects, and the PPB experiments were conducted in accordance with the Ethical Guidelines for Medical and Health Research Involving Human Subjects. Binding of compounds to plasma protein was evaluated by equilibrium dialysis utilizing a 96-well equilibrium dialysis unit and HTD96b dialysis membrane strips with a molecular cutoff of 12–14 kDa (HTDialysis, Gales Ferry, CT, USA). Plasma containing the compounds (final concentration of 5 µM) and buffer (Dulbecco’s phosphate-buffered saline; Thermo Fisher Scientific, Waltham, MA) were added into the donor and receiver cells, respectively. Following dialysis for 5 h at 37 °C, the concentrations of the compounds in the plasma and buffer were determined by liquid chromatography–tandem mass spectrometry (LC–MS/MS) (Acquity™ Ultra Performance LC I-Class and Xevo TQ-S; Waters, Milford, MA). The percentage of free fraction (fu) was calculated according to the following equation [17]:1 Freefraction(fu,%)=Concentrationofbuffer/Concentrationofplasma×100
# [2] = cited from earlier work
# [3] = Measurement of Rb (blood-to-plasma concentration ratio) in spiked human blood, LC-MS/MS; format: in vitro ADME; details: footnote a: Rb is our experimental data; for blood plasma ratio at 30 min, 5 µM: read-out: Rb_Human (blood-to-plasma concentration ratio); for Rb_Human: blood-to-plasma concentration ratio
# Procedure: Heparinized blood was collected from three to seven healthy volunteers not medicated for at least seven days. […] The blood was spiked with the compounds (final concentration of 5 µM) and incubated at 37 °C for 30 min. Following incubation, the samples were centrifuged at 5000 rpm for 5 min to obtain plasma. Subsequently, the concentrations of the compounds in the plasma were determined by LC–MS/MS using the same method as described for the measurement of PPB. Rb was calculated according to Eq. (2).
# [4] = human, cited from earlier work
# [5] = human
# [6] = system: plasma protein; test: in vitro; details: human
# Procedure: as §1
# [7] = human; median if multiple values were reported; ref numbers in Table S1; cited from earlier work
# [8] = human, intravenous, median if multiple values were reported, ref numbers in Table S1
# [9] = intravenous, median if multiple values were reported, ref numbers in Table S1
# [10] = human, intravenous, median if multiple values reported, Reference of Table S1
# [11] = intravenous, median if multiple values reported, Reference of Table S1
SMILES,fp_Human ([1]; human plasma free fraction),"fraction unbound at 5 h, 5 µM ([1]; pooled human plasma)","in vivo CL_(L/hr/kg)_Human [2, 8]","blood plasma ratio at 30 min, 5 µM ([3]; heparinized human whole blood)","in vivo Vd_(L/kg)_Human [4, 9]",in vivo MRT_(hr)_Human [5],fp_Human ([1]; free fraction in human plasma),Rb_Human [3],"in vivo Vd_(L/kg)_Human [4, 11]",other results
CN(C)CCc1c[nH]c2ccc(CS(=O)(=O)N3CCCC3)cc12 [Almotriptan],0.625,0.625,0.534 L/h/kg,1.15,2.200 L/kg,4.120 h,–,–,–,–
CO/N=C(\C(=O)N[C@@H]1C(=O)N2C(C(=O)O)=C(CSc3nc(C)c(CC(=O)O)s3)CS[C@H]12)c1csc(N)n1 [Cefodizime],0.097,0.097,0.037 L/h/kg,0.57,0.054 L/kg,1.475 h,–,–,–,–
Cc1cc(O)c(C(=O)N[C@@H](C(=O)N[C@@H]2C(=O)N3C(C(=O)O)=C(CSc4nnnn4C)CS[C@H]23)c2ccc(O)cc2)cn1 [Cefpiramide],0.039,0.039,0.029 L/h/kg,0.53,0.130 L/kg,4.514 h,–,–,–,–
CO/N=C(\C(=O)N[C@@H]1C(=O)N2C(C(=O)O)=CCS[C@H]12)c1csc(N)n1 [Ceftizoxime],0.995,0.995,0.126 L/h/kg,0.54,0.215 L/kg,1.706 h,–,–,–,–
CN(C)CCCC1(c2ccc(F)cc2)OCc2cc(C#N)ccc21 (centres unmarked) [Citalopram],0.396,0.396,0.258 L/h/kg,1.39,13.000 L/kg,50.388 h,–,–,–,–
O=P1(N(CCCl)CCCl)NCCCO1 (centres unmarked) [Cyclophosphamide],0.928,–,–,–,–,10.833 h,–,–,–,"fraction unbound at 5 h, 5 µM ([1]; plasma): 0.928; in vivo CL_(L/hr/kg)_Human ([2]; in vivo, iv): 0.078 L/h/kg; blood plasma ratio at 30 min, 5 µM ([3]; plasma): 0.92; in vivo Vd_(L/kg)_Human ([4]; in vivo, iv): 0.715 L/kg"
O=C(O)Cc1ccccc1Nc1c(Cl)cccc1Cl [Diclofenac],0.00216,0.00216,0.210 L/h/kg,0.6,0.220 L/kg,1.048 h,–,–,–,–
CC(C)N(CCC(C(N)=O)(c1ccccc1)c1ccccn1)C(C)C (centres unmarked) [Disopyramide],0.204,0.204,0.099 L/h/kg,0.81,0.650 L/kg,12.037 h,–,–,–,–
NC(N)=Nc1nc(CSCCC(N)=NS(N)(=O)=O)cs1 [Famotidine],1.000,1,0.396 L/h/kg,0.74,1.200 L/kg,3.030 h,–,–,–,–
NCC1(CC(=O)O)CCCCC1 [Gabapentin],1.000,–,0.102 L/h/kg,–,–,7.500 h,–,–,–,"fraction unbound [6]: 1; in vivo Vd_(L/kg)_Human ([4]; in vivo, iv): 0.765 L/kg; Rb_Human (blood-to-plasma concentration ratio) [7]: 1.10"
C[C@H]1NCc2cc(-c3ccc4c(=O)c(C(=O)O)cn(C5CC5)c4c3OC(F)F)ccc21 [Garenoxacin],0.236,0.236,0.074 L/h/kg,0.72,1.000 L/kg,13.550 h,–,–,–,–
COc1ccc2c(c1)c(CC(=O)O)c(C)n2C(=O)c1ccc(Cl)cc1 [Indomethacin],0.00361,0.00361,0.095 L/h/kg,0.59,0.595 L/kg,4.958 h,–,–,–,–
CC1CCCC(C)N1CCCC(O)(c1ccccc1)c1ccccn1 (centres unmarked) [Pirmenol],–,–,–,–,–,12.500 h,0.339,0.86,1.350 L/kg,"in vivo CL_(L/hr/kg)_Human [2, 10]: 0.108 L/h/kg"
C[C@]12C=CC(=O)C=C1CC[C@@H]1[C@@H]2C(=O)C[C@@]2(C)[C@H]1CC[C@]2(O)C(=O)CO [Prednisone],–,–,–,–,–,5.133 h,0.447,0.90,0.770 L/kg,–
CC(C)NCC(O)COc1cccc2ccccc12 (centres unmarked) [Propranolol],–,–,–,–,–,4.653 h,0.098,1.08,3.350 L/kg,"in vivo CL_(L/hr/kg)_Human [2, 10]: 0.720 L/h/kg"
COc1ccc(C(CN(C)C)C2(O)CCCCC2)cc1 (centres unmarked) [Venlafaxine],–,–,–,–,–,–,0.684,1.19,4.400 L/kg,"in vivo CL_(L/hr/kg)_Human [2, 10]: 0.840 L/h/kg"
CC[C@]1(O)C[C@@H]2CN(CCc3c([nH]c4ccccc34)[C@@](C(=O)OC)(c3cc4c(cc3OC)N(C)[C@H]3[C@@](O)(C(=O)OC)[C@H](OC(C)=O)[C@]5(CC)C=CCN6CC[C@]43[C@@H]65)C2)C1 [Vinblastine],–,–,–,–,–,139.785 h,0.176,0.92,26.000 L/kg,–
CC(=O)CC(c1ccccc1)c1c(O)c2ccccc2oc1=O (centres unmarked) [Warfarin],–,–,–,–,–,33.333 h,0.005,0.52,0.120 L/kg,–
